{"source": "ChEMBL document CHEMBL5329169", "about": "“Recent developments in membrane targeting antifungal agents to mitigate antifungal resistance” (2023)", "format_in_all_cases": "functional", "key": {"[1]": {"system": "Candida albicans", "assay": "Antifungal activity against Candida albicans ATCC 10231 assessed as fungal growth inhibition measured after 24 hrs by two fold serial dilution technique"}, "[2]": {"system": "Candida albicans", "assay": "Antifungal activity against Candida albicans SC5314 assessed as fungal growth inhibition measured after 20 hrs by microplate assay"}, "[3]": {"system": "Cryptococcus neoformans", "assay": "Antifungal activity against Cryptococcus neoformans H99 assessed as fungal growth inhibition measured after 20 hrs by microplate assay"}, "[4]": {"system": "Candida albicans", "assay": "Antifungal activity against Candida albicans assessed as fungal growth inhibition measured after 48 hrs by broth microdilution assay"}, "[5]": {"system": "Candida albicans", "assay": "Antifungal activity against Candida albicans SC5314 assessed as log reduction in fungal growth at 2x MIC measured after 6 hrs"}}, "data": [{"compound": "CC[n+]1ccn(CCC[C@@H](C)[C@H]2CC[C@H]3[C@@H]4CC[C@@H]5C[C@H](O)CC[C@]5(C)[C@H]4CC[C@]23C)c1.[I-]", "values": [{"measurement": "MIC80", "setting": "[1]", "value": 0.5, "unit": "µg/mL"}]}, {"compound": "CCCCCCCCCCN(Cc1cccc2ccccc12)C(=O)C(N)CCCCN", "note": "(stereo unspecified)", "values": [{"measurement": "MIC80", "setting": "[2]", "value": 12.5, "unit": "µg/mL"}, {"measurement": "MIC80", "setting": "[3]", "value": 3.1, "unit": "µg/mL"}]}, {"compound": "C[C@H](CCCn1cc[n+](C)c1)[C@H]1CC[C@H]2[C@@H]3CC[C@@H]4C[C@H](O)CC[C@]4(C)[C@H]3CC[C@]12C.[I-]", "values": [{"measurement": "MIC80", "setting": "[1]", "value": 0.25, "unit": "µg/mL"}]}, {"compound": "C[C@H](CCC(=O)O)[C@H]1CC[C@H]2[C@@H]3CC[C@@H]4C[C@H](O)CC[C@]4(C)[C@H]3CC[C@]12C", "note": "[LITHOCHOLIC ACID]", "values": [{"measurement": "MIC80", "setting": "[4]", "value": 3.12, "unit": "µg/mL"}]}, {"compound": "H-GIWKKWIKKWLKKLKNLF-NH2", "values": [{"measurement": "Activity", "setting": "[5]", "value": 5.55, "unit": "log reduction"}]}]}
